Measured values as given in patent US20260363244A1, “HERBICIDAL COMPOSITIONS COMPRISING URACILS” (BASF SE, priority 2022, published 2026).
Like-named read-outs stand apart in the source and are kept apart here.

What was measured:
Type in all cases: in vivo
Brachiaria decumbens = assay: greenhouse post-emergence herbicidal activity, BRADC; details: solo application, BRADC, GS 11-33, 20 DAT, use rate 1.6 gai/ha
Description: (§1) The following examples serve to illustrate the invention.
(§2) The culture containers used were plastic pots containing loamy sand with approximately 3.0% of humus as substrate. The seeds of the test plants were sown separately for each species.
(§3) For the post-emergence treatment, the test plants were grown to a plant height of from 3 to 15 cm, depending on the plant habit, and only then treated with the active compounds which had been suspended or emulsified in water. To this end, the test plants were either sown directly, and grown in the same containers, or they were first grown separately as seedlings and transplanted into the test containers a few days prior to treatment.
(§4) Depending on the species, the plants were kept at 10-25 °C and 20-35 °C, respectively. The test period extended over 2 to 4 weeks. During this time, the plants were tended and their response to the individual treatments was evaluated.
(§5) Evaluation was carried out using a scale from 0 to 100. 100 means no emergence of the plants, or complete destruction of at least the above-ground parts, and 0 means no damage or normal course of growth. A good herbicidal activity is given at values of at least 70, and very good herbicidal activity is given at values of at least 85.
(§6) The respective stated components A and B, and if appropriate, C were formulated as a 5% by weight strength emulsion concentrate and, with addition of the amount of solvent system, introduced into the spray liquor used for applying the active compound. In the examples, the solvent used was water.
(§7) In the examples below, using the method of S. R. Colby (1967) “Calculating synergistic and antagonistic responses of herbicide combinations”, Weeds 15, p. 22ff., the value E, which is expected if the activity of the individual active compounds is only additive, was calculated.
(§8) E=X+Y−(X·Y/100) • where • X=percent activity using active compound A at an application rate a; • Y=percent activity using active compound B at an application rate b; • E=expected activity (in %) by A+B at application rates a+b.
(§9) The plants used in the greenhouse experiments were of the following species
(§10) In this context, a.i. means active ingredient, based on 100% active ingredient.
(§11) As indicated the application was post emergent (POST) at the respective growth stage (GS) of the weed.
(§12) Assessment was at the indicated days after treatment (DAT).

Echinocloa crus-galli = assay: greenhouse post-emergence herbicidal activity, ECHCG; details: for % activity: solo application, ECHCG, GS 11-33, 20 DAT
Description: as §1, §2, §3, §4, §5, §6, §7, §8, §9, §10, §11, §12

Digitaria sanguinales = assay: greenhouse post-emergence herbicidal activity, DIGSA; details: for activity at […]: 0.25 gai/ha
Description: as §1, §2, §3, §4, §5, §6, §7, §8, §9, §10, §11, §12

Sorghum halepense = assay: greenhouse post-emergence herbicidal activity, SORHA; details: solo application, SORHA, GS 11-33, 20 DAT, use rate 1.6 gai/ha
Description: as §1, §2, §3, §4, §5, §6, §7, §8, §9, §10, §11, §12

Setaria viridis = assay: greenhouse post-emergence herbicidal activity, SETVI; details: for % activity: solo application, SETVI, GS 11-33, 8 DAT, use rate 0.8 gai/ha; for activity at 1 g/ha: 1 gai/ha
Description: as §1, §2, §3, §4, §5, §6, §7, §8, §9, §10, §11, §12

Lolium multiflorum = assay: greenhouse post-emergence herbicidal activity, LOLMU; details: solo application, LOLMU, GS 11-33, 7 DAT, use rate 1.6 gai/ha
Description: as §1, §2, §3, §4, §5, §6, §7, §8, §9, §10, §11, §12

Kochia scoparia = assay: greenhouse post-emergence herbicidal activity, KCHSC; details: for % activity: solo application, KCHSC
Description: as §1, §2, §3, §4, §5, §6, §7, §8, §9, §10, §11, §12

Setaria faberi = assay: greenhouse post-emergence herbicidal activity, SETFA; details: Setaria faberi, post-emergence, read-out: % activity (solo application); for activity at 0.5 g/ha: 0.5 gai/ha; for activity at […]: 0.25 gai/ha; for activity at 2 g/ha: 2 gai/ha; for activity at 4 g/ha: 4 gai/ha
Description: as §1, §2, §3, §4, §5, §6, §7, §8, §9, §10, §11, §12

Avena fatua = assay: greenhouse post-emergence herbicidal activity, AVEFA; details: read-out: % activity (solo application); for activity at 0.5 g/ha: 0.5 gai/ha; for activity at 2 g/ha / activity at 4 g/ha: 168 h, GS 12-16, 7 DAT; for activity at 2 g/ha: 2 gai/ha; for activity at 4 g/ha: 4 gai/ha
Description: as §1, §2, §3, §4, §5, §6, §7, §8, §9, §10, §11, §12

Commenline benghalensis = assay: greenhouse post-emergence herbicidal activity, COMBE; details: read-out: % activity (solo application); for activity at 0.5 g/ha: 0.5 gai/ha
Description: as §1, §2, §3, §4, §5, §6, §7, §8, §9, §10, §11, §12

Amaranthus tamariscinus = assay: greenhouse post-emergence herbicidal activity, AMATA; details: 0.25 gai/ha, read-out: % activity (solo application)
Description: as §1, §2, §3, §4, §5, §6, §7, §8, §9, §10, §11, §12

Abutilon theophrasti = assay: greenhouse post-emergence herbicidal activity, ABUTH; details: read-out: % activity (solo application); for activity at 2 g/ha: 2 gai/ha
Description: as §1, §2, §3, §4, §5, §6, §7, §8, §9, §10, §11, §12

Eleusine indica = assay: greenhouse post-emergence herbicidal activity, ELEIN; details: 480 h, GS 12-16, 20 DAT, 0.25 gai/ha, read-out: % activity (solo application)
Description: as §1, §2, §3, §4, §5, §6, §7, §8, §9, §10, §11, §12

[1] = 480 h, GS 12-16, 20 DAT, 1 gai/ha
[2] = Digitaria, post-emergence, 480 h, GS 12-16, 20 DAT, read-out: % activity (solo application)

For `CCOC(=O)COc1ncccc1Oc1nc(-n2c(=O)cc(C(F)(F)F)n(C)c2=O)c(F)cc1Cl` [I.6], the “% activity” value (Brachiaria decumbens) was 40%, the “% activity” value (Echinocloa crus-galli; use rate 1.6 gai/ha) was 45% and the “% activity” value (Digitaria sanguinales; solo application, DIGSA, GS 11-33, 20 DAT, use rate 1.6 gai/ha) was 50%. For the same molecule, the “% activity” value (Sorghum halepense) was 10%, the “% activity” value (Setaria viridis) was 30% and the “% activity” value (Lolium multiflorum) was 15%. For the same molecule, the “% activity” value (Kochia scoparia; GS 11-33, 20 DAT, use rate 0.8 gai/ha) was 55%.
`C[C@]1(C(=O)N[C@H]2C=C[C@@H](C(=O)O)C2)CC(c2cc(F)cc(F)c2)=NO1` [(II.8.cis.B), (1S,4R)-4-[[(5R)-3-(3,5-difluorophenyl)-5-methyl-4H-isoxazole-5-carbonyl]amino]cyclopent-2-ene-1-carboxylic acid] gave an activity at 1 g/ha (Echinocloa crus-galli; Echinochloa crus-galli, post-emergence, 144 h, GS 12-16, 6 DAT, 1 gai/ha, read-out: % activity (solo application)) of 70%, an activity at 0.5 g/ha (Setaria faberi; 144 h, GS 12-16, 6 DAT) of 20% and an activity at 0.5 g/ha (Setaria faberi; 480 h, GS 12-16, 20 DAT) of 30%. The activity at 1 g/ha (Setaria faberi; [1]) was 50%, the activity at 0.5 g/ha (Avena fatua; 144 h, GS 12-16, 6 DAT) was 20% and the activity at 2 g/ha (Avena fatua) was 30%. For the same molecule, the activity at 4 g/ha (Avena fatua) was 30%, the activity at 0.5 g/ha (Avena fatua; 480 h, GS 12-16, 20 DAT) was 15% and the activity at 1 g/ha (Avena fatua; [1]) was 65%. It also gave an activity at 0.5 g/ha (Commenline benghalensis; 144 h, GS 12-16, 6 DAT) of 15%, an activity at 1 g/ha (Commenline benghalensis; 144 h, GS 12-16, 6 DAT, 1 gai/ha) of 40% and an activity at 1 g/ha (Setaria viridis; Setaria viridis, post-emergence, 144 h, GS 12-16, 6 DAT, read-out: % activity (solo application)) of 10%. For the same molecule, the activity at 1 g/ha (Setaria viridis; Setaria viridis, post-emergence, 480 h, GS 12-16, 20 DAT, read-out: % activity (solo application)) was 20% and the activity at 1 g/ha (Kochia scoparia; Bassia scoparia, post-emergence, 480 h, GS 12-16, 20 DAT, 1 gai/ha, read-out: % activity (solo application)) was 20%.
With `C=C[C@]1(C(=O)N[C@H]2C=C[C@@H](C(=O)OC)C2)CC(c2cc(F)cc(F)c2)=NO1` [(II.5.cis.B), methyl (1S,4R)-4-[[(5S)-3-(3,5-difluorophenyl)-5-vinyl-4H-isoxazole-5-carbonyl]amino]cyclopent-2-ene-1-carboxylate] the activity at […] (Echinocloa crus-galli; Echinochloa crus-galli, post-emergence, 144 h, GS 12-16, 6 DAT, 0.25 gai/ha, read-out: % activity (solo application)) was 15%, the activity at […] (Digitaria sanguinales; [2]) was 35% and the activity at […] (Setaria faberi; 144 h, GS 12-16, 6 DAT) was 40%. It also gave an activity at […] (Setaria faberi; 480 h, GS 12-16, 20 DAT) of 30%, an activity at 2 g/ha (Avena fatua) of 40% and an activity at […] (Amaranthus tamariscinus; 144 h, GS 12-16, 6 DAT) of 45%. For the same molecule, the activity at […] (Amaranthus tamariscinus; 480 h, GS 12-16, 20 DAT) was 40%, the activity at […] (Commenline benghalensis; 144 h, GS 12-16, 6 DAT, 0.25 gai/ha) was 40% and the activity at 0.5 g/ha (Commenline benghalensis; 144 h, GS 12-16, 6 DAT) was 55%. For the same molecule, the activity at 0.5 g/ha (Commenline benghalensis; 480 h, GS 12-16, 20 DAT) was 70%.
With `CCOC(=O)COc1ncccc1Oc1nc(-n2c(=O)cc(C(F)(F)F)n(C)c2=O)c(F)cc1Br` [I.9] the “% activity” value (Echinocloa crus-galli; use rate 0.4 gai/ha) was 40%, the “% activity” value (Setaria viridis) was 75% and the “% activity” value (Kochia scoparia; GS 11-33, 7 DAT, use rate 0.4 gai/ha) was 60%.
Work on `C=C[C@]1(C(=O)N[C@@H]2CO[C@H](C(=O)OC)C2)CC(c2cc(F)cc(F)c2)=NO1` [(II.1.cis.A), methyl (2S,4S)-4-[[(5S)-3-(3,5-difluorophenyl)-5-vinyl-4H-isoxazole-5-carbonyl]amino]tetrahydrofuran-2-carboxylate] yielded an activity at 2 g/ha (Setaria faberi; 168 h, GS 12-16, 7 DAT) of 70%, an activity at 4 g/ha (Setaria faberi; 168 h, GS 12-16, 7 DAT) of 70% and an activity at 2 g/ha (Setaria faberi; 504 h, GS 12-16, 21 DAT) of 75%. It also gave an activity at 4 g/ha (Setaria faberi; 504 h, GS 12-16, 21 DAT) of 85%, an activity at 2 g/ha (Avena fatua) of 20% and an activity at 4 g/ha (Avena fatua) of 25%. The activity at 2 g/ha (Abutilon theophrasti; 168 h, GS 12-16, 7 DAT) was 15% and the activity at 2 g/ha (Abutilon theophrasti; 504 h, GS 12-16, 21 DAT) was 0%.
`C=C[C@]1(C(=O)N[C@H]2CO[C@@H](C(=O)OC)C2)CC(c2cc(F)cc(F)c2)=NO1` [(II.1.cis.B), methyl (2R,4R)-4-[[(5S)-3-(3,5-difluorophenyl)-5-vinyl-4H-isoxazole-5-carbonyl]amino]tetrahydrofuran-2-carboxylate] showed an activity at […] (Digitaria sanguinales; [2]) of 20%, an activity at 0.5 g/ha (Digitaria sanguinales; Digitaria, post-emergence, 480 h, GS 12-16, 20 DAT, 0.5 gai/ha, read-out: % activity (solo application)) of 50% and an activity at […] (Setaria faberi; 144 h, GS 12-16, 6 DAT) of 35%. For the same molecule, the activity at 0.5 g/ha (Setaria faberi; 144 h, GS 12-16, 6 DAT) was 55%, the activity at […] (Setaria faberi; 480 h, GS 12-16, 20 DAT) was 20% and the activity at 0.5 g/ha (Setaria faberi; 480 h, GS 12-16, 20 DAT) was 25%. For the same molecule, the activity at 2 g/ha (Avena fatua) was 10%, the activity at 4 g/ha (Avena fatua) was 20% and the activity at […] (Amaranthus tamariscinus; 144 h, GS 12-16, 6 DAT) was 15%. For the same molecule, the activity at […] (Eleusine indica) was 20%, the activity at 0.5 g/ha (Setaria viridis; Setaria viridis, post-emergence, 480 h, GS 12-16, 20 DAT, 0.5 gai/ha, read-out: % activity (solo application)) was 50% and the activity at 0.5 g/ha (Abutilon theophrasti; 144 h, GS 12-16, 6 DAT, 0.5 gai/ha) was 0%. The activity at 0.5 g/ha (Kochia scoparia; Bassia scoparia, post-emergence, 480 h, GS 12-16, 20 DAT, 0.5 gai/ha, read-out: % activity (solo application)) was 15%.
